Data from ChEMBL document CHEMBL1201862, “PubChem BioAssay data set” (2004).
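Where inhibition never reached the appropriate level, the endpoint shown equals the highest concentration tested. Otherwise, values were interpolated linearly from a five-concentration, 48-hour dose response in 96-well plates. GI50 marks 50% less growth.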 Activity calls are given as the source filed them. Rule as the data show it: active = GI50 up to about 1.1 µM and inactive = higher.

What was measured:
Assay in all cases: NCI tumour cell line growth inhibition, 48 h
786-0 = system: 786-0
A498 = system: A498
A549 = system: A549
ACHN = system: ACHN
BT-549 = system: BT-549
CAKI-1 = system: CAKI-1
CCRF-CEM = system: CCRF-CEM
COLO 205 = system: COLO 205
DU-145 = system: DU-145
EKVX = system: EKVX
HCC 2998 = system: HCC 2998
HCT-116 = system: HCT-116
HCT-15 = system: HCT-15
HL-60 = system: HL-60
HOP-62 = system: HOP-62
HOP-92 = system: HOP-92
HT-29 = system: HT-29
Hs-578T = system: Hs-578T
IGROV-1 = system: IGROV-1
K562 = system: K562
KM12 = system: KM12
LOX IMVI = system: LOX IMVI
M14 = system: M14
MCF7 = system: MCF7
MDA-MB-231 = system: MDA-MB-231
MDA-MB-435 = system: MDA-MB-435
MDA-N = system: MDA-N
MOLT-4 = system: MOLT-4
Malme-3M = system: Malme-3M
NCI-H226 = system: NCI-H226
NCI-H23 = system: NCI-H23
NCI-H460 = system: NCI-H460
NCI-H522 = system: NCI-H522
NCI/ADR-RES = system: NCI/ADR-RES
OVCAR-3 = system: OVCAR-3
OVCAR-4 = system: OVCAR-4
OVCAR-5 = system: OVCAR-5
OVCAR-8 = system: OVCAR-8
PC-3 = system: PC-3
RPMI-8226 = system: RPMI-8226
RXF 393 = system: RXF 393
SF-268 = system: SF-268
SF-295 = system: SF-295
SF-539 = system: SF-539
SK-MEL-28 = system: SK-MEL-28
SK-MEL-2 = system: SK-MEL-2
SK-MEL-5 = system: SK-MEL-5
SK-OV-3 = system: SK-OV-3
SN12C = system: SN12C
SNB-19 = system: SNB-19
SNB-75 = system: SNB-75
SR = system: SR
SW-620 = system: SW-620
T47D = system: T47D
TK-10 = system: TK-10
U-251 = system: U-251
UACC-257 = system: UACC-257
UACC-62 = system: UACC-62
UO-31 = system: UO-31
DLD-1 = system: DLD-1
DMS-114 = system: DMS-114
KM-20L2 = system: KM-20L2
LXFL 529 = system: LXFL 529
M19-MEL = system: M19-MEL
XF498 = system: XF498
DMS-273 = system: DMS-273
SNB-78 = system: SNB-78

COc1ccc(C2C(=O)c3ccc(OC)cc3OC2c2cccnc2)cc1 (configuration not stated)
GI50 (786-0): 83.2 µM (inactive)
GI50 (A498): > 100 µM (inactive)
GI50 (A549): > 100 µM (inactive)
GI50 (ACHN): > 100 µM (inactive)
GI50 (BT-549): 49.9 µM (inactive)
GI50 (CAKI-1): > 100 µM (inactive)
GI50 (CCRF-CEM): > 100 µM (inactive)
GI50 (COLO 205): > 100 µM (inactive)
GI50 (DU-145): > 100 µM (inactive)
GI50 (EKVX): > 100 µM (inactive)
GI50 (HCC 2998): > 100 µM (inactive)
GI50 (HCT-116): > 100 µM (inactive)
GI50 (HCT-15): > 100 µM
GI50 (HL-60): > 100 µM (inactive)
GI50 (HOP-62): 33.2 µM (inactive)
GI50 (HOP-92): 22.5 µM (inactive)
GI50 (HT-29): > 100 µM (inactive)
GI50 (Hs-578T): 45.1 µM (inactive)
GI50 (IGROV-1): > 100 µM (inactive)
GI50 (K562): > 100 µM (inactive)
GI50 (KM12): > 100 µM (inactive)
GI50 (LOX IMVI): > 100 µM (inactive)
GI50 (M14): > 100 µM (inactive)
GI50 (MCF7): > 100 µM (inactive)
GI50 (MDA-MB-231): > 100 µM (inactive)
GI50 (MDA-MB-435): > 100 µM (inactive)
GI50 (MDA-N): > 100 µM (inactive)
GI50 (MOLT-4): > 100 µM (inactive)
GI50 (Malme-3M): > 100 µM (inactive)
GI50 (NCI-H226): 44.2 µM (inactive)
GI50 (NCI-H23): > 100 µM (inactive)
GI50 (NCI-H460): > 100 µM (inactive)
GI50 (NCI-H522): > 100 µM (inactive)
GI50 (NCI/ADR-RES): > 100 µM (inactive)
GI50 (OVCAR-3): > 100 µM (inactive)
GI50 (OVCAR-4): > 100 µM (inactive)
GI50 (OVCAR-5): > 100 µM (inactive)
GI50 (OVCAR-8): 56 µM (inactive)
GI50 (PC-3): > 100 µM (inactive)
GI50 (RPMI-8226): > 100 µM (inactive)
GI50 (RXF 393): 86.3 µM (inactive)
GI50 (SF-268): 49.8 µM (inactive)
GI50 (SF-295): 46.6 µM (inactive)
GI50 (SF-539): > 100 µM (inactive)
GI50 (SK-MEL-28): > 100 µM (inactive)
GI50 (SK-MEL-2): > 100 µM (inactive)
GI50 (SK-MEL-5): > 100 µM (inactive)
GI50 (SK-OV-3): 43.2 µM (inactive)
GI50 (SN12C): > 100 µM (inactive)
GI50 (SNB-19): 92.7 µM (inactive)
GI50 (SNB-75): 34.8 µM (inactive)
GI50 (SR): > 100 µM (inactive)
GI50 (SW-620): > 100 µM (inactive)
GI50 (T47D): > 100 µM (inactive)
GI50 (TK-10): 46.7 µM (inactive)
GI50 (U-251): 70.3 µM (inactive)
GI50 (UACC-257): > 100 µM (inactive)
GI50 (UACC-62): > 100 µM (inactive)
GI50 (UO-31): > 100 µM (inactive)

CC12CCC(=O)N1[C@@H](c1ccccc1)[C@@H](c1ccccc1)O2 (some centres not stated)
GI50 (786-0): > 100 µM (inactive)
GI50 (A498): > 100 µM (inactive)
GI50 (A549): > 100 µM (inactive)
GI50 (ACHN): > 100 µM (inactive)
GI50 (CAKI-1): > 100 µM (inactive)
GI50 (CCRF-CEM): > 100 µM (inactive)
GI50 (COLO 205): > 100 µM (inactive)
GI50 (DLD-1): 44 µM (inactive)
GI50 (DMS-114): > 100 µM (inactive)
GI50 (HCC 2998): > 100 µM (inactive)
GI50 (HCT-116): > 100 µM (inactive)
GI50 (HCT-15): > 100 µM
GI50 (HL-60): > 100 µM (inactive)
GI50 (HOP-62): > 100 µM (inactive)
GI50 (HOP-92): 84.7 µM (inactive)
GI50 (HT-29): > 100 µM (inactive)
GI50 (IGROV-1): > 100 µM (inactive)
GI50 (K562): > 100 µM (inactive)
GI50 (KM-20L2): > 100 µM (inactive)
GI50 (KM12): > 100 µM (inactive)
GI50 (LOX IMVI): > 100 µM (inactive)
GI50 (LXFL 529): > 100 µM (inactive)
GI50 (M14): > 100 µM (inactive)
GI50 (M19-MEL): > 100 µM (inactive)
GI50 (MOLT-4): > 100 µM (inactive)
GI50 (Malme-3M): > 100 µM (inactive)
GI50 (NCI-H226): > 100 µM (inactive)
GI50 (NCI-H460): > 100 µM (inactive)
GI50 (NCI-H522): > 100 µM (inactive)
GI50 (OVCAR-3): > 100 µM (inactive)
GI50 (OVCAR-4): > 100 µM (inactive)
GI50 (OVCAR-5): > 100 µM (inactive)
GI50 (OVCAR-8): > 100 µM (inactive)
GI50 (SF-268): > 100 µM (inactive)
GI50 (SF-295): > 100 µM (inactive)
GI50 (SF-539): > 100 µM (inactive)
GI50 (SK-MEL-2): > 100 µM (inactive)
GI50 (SK-MEL-5): > 100 µM (inactive)
GI50 (SK-OV-3): 68.9 µM (inactive)
GI50 (SN12C): > 100 µM (inactive)
GI50 (SNB-19): > 100 µM (inactive)
GI50 (SNB-75): > 100 µM (inactive)
GI50 (SW-620): > 100 µM (inactive)
GI50 (UACC-257): > 100 µM (inactive)
GI50 (UACC-62): 42.5 µM (inactive)
GI50 (UO-31): > 100 µM (inactive)
GI50 (XF498): > 100 µM (inactive)

C/C=C(\NC(=O)C(CCCCN)NC(=O)C(C)NC(=O)C1CSC(C)C(NC(=O)C2CSCC(NC(=O)C(C)NC(=O)C(N)C(C)CC)C(=O)NC(CCCCN)C(=O)NC(Cc3ccccc3)C(=O)NC(CC(C)C)C(=O)N2)C(=O)N2CCCC2C(=O)NCC(=O)N1)C(=O)NCC(=O)NC1CSCC2NC(=O)C(Cc3ccc(O)cc3)NC(=O)C(CSC=CNC2=O)NC(=O)C(CC(N)=O)NC(=O)C(Cc2ccccc2)NC1=O (configuration not stated)
GI50 (786-0): 35.6 µM (inactive)
GI50 (A549): > 100 µM (inactive)
GI50 (ACHN): 65 µM (inactive)
GI50 (CCRF-CEM): > 100 µM (inactive)
GI50 (COLO 205): > 100 µM (inactive)
GI50 (DLD-1): > 100 µM (inactive)
GI50 (DMS-114): > 100 µM (inactive)
GI50 (DMS-273): 57.1 µM (inactive)
GI50 (EKVX): 52.2 µM (inactive)
GI50 (HCC 2998): > 100 µM (inactive)
GI50 (HCT-116): > 100 µM (inactive)
GI50 (HCT-15): > 100 µM
GI50 (HL-60): > 100 µM (inactive)
GI50 (HOP-62): < 0.01 µM (active)
GI50 (HT-29): > 100 µM (inactive)
GI50 (IGROV-1): > 100 µM (inactive)
GI50 (K562): > 100 µM (inactive)
GI50 (KM12): 66.2 µM (inactive)
GI50 (LOX IMVI): > 100 µM (inactive)
GI50 (LXFL 529): > 100 µM (inactive)
GI50 (M14): > 100 µM (inactive)
GI50 (M19-MEL): 67.8 µM (inactive)
GI50 (MOLT-4): > 100 µM (inactive)
GI50 (NCI-H23): > 100 µM (inactive)
GI50 (NCI-H460): 75.3 µM (inactive)
GI50 (OVCAR-3): > 100 µM (inactive)
GI50 (OVCAR-4): > 100 µM (inactive)
GI50 (OVCAR-5): > 100 µM (inactive)
GI50 (OVCAR-8): > 100 µM (inactive)
GI50 (RXF 393): > 100 µM (inactive)
GI50 (SF-268): 33.4 µM (inactive)
GI50 (SF-295): > 100 µM (inactive)
GI50 (SF-539): > 100 µM (inactive)
GI50 (SK-MEL-28): 78.3 µM (inactive)
GI50 (SK-MEL-2): > 100 µM (inactive)
GI50 (SK-MEL-5): 19.6 µM (inactive)
GI50 (SN12C): > 100 µM (inactive)
GI50 (SNB-19): > 100 µM (inactive)
GI50 (SNB-75): 20.3 µM (inactive)
GI50 (SNB-78): > 100 µM (inactive)
GI50 (SR): > 100 µM (inactive)
GI50 (SW-620): > 100 µM (inactive)
GI50 (TK-10): > 100 µM (inactive)
GI50 (U-251): > 100 µM (inactive)
GI50 (UACC-62): 37.6 µM (inactive)
GI50 (XF498): > 100 µM (inactive)
